Data from the NIST ThermoML archive (doi:10.1021/je100720x).

Test: osmotic coefficient (dimensionless); mn = molality of the nth substance listed, in mol/kg
Details: 298.15 K, Liquid, isopiestic method

CCn1cc[n+](C)c1.[Br-] [1-ethyl-3-methylimidazolium bromide] + O
Details	osmotic coefficient
m1 = 0.5514	0.811
m1 = 0.6588	0.801
m1 = 0.6883	0.799
m1 = 0.7764	0.795
m1 = 0.9367	0.787
m1 = 1.04	0.786
m1 = 1.943	0.763
m1 = 2.308	0.757
m1 = 2.542	0.759
m1 = 3.189	0.763
m1 = 4.359	0.786
m1 = 5.41	0.821
m1 = 7.17	0.883

O=P([O-])([O-])O.[K+].[K+] [dipotassium hydrogen phosphate] + O
Details	osmotic coefficient
m1 = 0.6496	0.711
m1 = 0.7592	0.704
m1 = 1.112	0.69
m1 = 1.251	0.69
m1 = 1.604	0.689
m1 = 1.712	0.694
m1 = 1.965	0.696
m1 = 2.163	0.709

O=P([O-])(O)O.[K+] [monopotassium phosphate] + O
Details	osmotic coefficient
m1 = 0.6269	0.8
m1 = 0.9843	0.744
m1 = 1.113	0.731
m1 = 1.228	0.717
m1 = 1.27	0.715
m1 = 1.508	0.696
m1 = 1.707	0.68

O=P([O-])([O-])[O-].[K+].[K+].[K+] [tripotassium phosphate] + O
Details	osmotic coefficient
m1 = 0.4308	0.694
m1 = 0.5142	0.698
m1 = 0.6347	0.705
m1 = 0.7575	0.708
m1 = 0.8132	0.716
m1 = 1.002	0.744
m1 = 1.012	0.745
m1 = 1.241	0.778
m1 = 1.695	0.866
m1 = 1.83	0.893
